Laboratory results from US20240190904A1, “Heteroaryl compounds as inhibitors of RIP2 kinase, composition and application thereof” (Accro Bioscience (HK) Limited, priority 2021, published 2024).

Tests used:
[1] = target: RIP2 kinase (Homo sapiens (Human), UniProt O43353); experiment: Binding affinity assay (Kd)
Procedure: For most assays, kinase-tagged T7 phage strains were prepared in an E. coli host derived from the BL21 strain. E. coli were grown to log-phase and infected with T7 phage and incubated with shaking at 32° C. until lysis. The lysates were centrifuged and filtered to remove cell debris. The remaining kinases were produced in HEK-293 cells and subsequently tagged with DNA for qPCR detection. Streptavidin coated magnetic beads were treated with biotinylated small molecule ligands for 30 minutes at room temperature to generate affinity resins for kinase assays. The liganded beads were blocked with excess biotin and washed with blocking buffer (SeaBlock (Pierce), 1% BSA, 0.05% Tween 20, 1 mM DTT) to remove unbound ligand and to reduce non-specific binding. Binding reactions were assembled by combining kinases, liganded affinity beads, and test compounds in 1× binding buffer (20% SeaBlock, 0.17×PBS, 0.05% Tween 20, 6 mM DTT). Test compounds were prepared as 111× stocks in 100% DMSO. Kds were determined using an 11-point 3-fold compound dilution series with three DMSO control points. All compounds for Kd measurements are distributed by acoustic transfer (non-contact dispensing) in 100% DMSO. The compounds were then diluted directly into the assays such that the final concentration of DMSO was 0.9%. All reactions performed in polypropylene 384-well plate. Each was a final volume of 0.02 ml. The assay plates were incubated at room temperature with shaking for 1 hour and the affinity beads were washed with wash buffer (1×PBS, 0.05% Tween 20). The beads were then re-suspended in elution buffer (1×PBS, 0.05% Tween 20, 0.5 μM nonbiotinylated affinity ligand) and incubated at room temperature with shaking for 30 minutes. The kinase concentration in the eluates was measured by qPCR.
An 11-point 3-fold serial dilution of each test compound was prepared in 100% DMSO at 100× final test concentration and subsequently diluted to 1× in the assay (final DMSO concentration=1%). Most Kds were determined using a compound top concentration=30,000 nM. If the initial Kd determined was <0.5 nM (the lowest concentration tested), the measurement was repeated with a serial dilution starting at a lower top concentration.
Binding constants (Kds) were calculated with a standard dose-response curve using the Hill equation: […]
The Hill Slope was set to −1.
Curves were fitted using a non-linear least square fit with the Levenberg-Marquardt algorithm.

[2] = test system: Caco-2; experiment: Caco-2 permeability test; format: in vitro ADME; details: Caco-2
Procedure: • 1. Prewarm HBSS Buffer in 37° C. water bath • 2. Take compounds from −20° C., sonicate for a few minutes (no less than 1 minute) • 3. Solution preparation
For A-to-B direction: • HBSS buffer with 0.3% DMSO and 5 μM LY: add 150 μL DMSO and 50 μL LY (5 mM) into 50 ml HBSS buffer (pH7.4). • HBSS buffer with 0.1% DMSO and 5 μM LY: add 50 μL DMSO and 50 μL LY (5 mM) into 50 mL HBSS buffer (pH7.4).
For B-to-A direction: • HBSS buffer with 0.3% DMSO: add 150 μL DMSO into 50 ml HBSS buffer (pH7.4) • HBSS buffer with 0.1% DMSO: add 50 μL DMSO into 50 ml HBSS buffer (pH7.4).
Receiver Solution Buffer:
Prepare HBSS buffer with 0.4% DMSO: add 200 μL DMSO into 50 ml HBSS buffer (pH7.4).
For B-to-A direction: • Prepare HBSS buffer with 0.4% DMSO and 5 uM LY: add 200 μL DMSO and 50 μL LY (5 mM) into 50 ml HBSS buffer (pH7.4).
Take cell culture plate out of incubator, wash the cell monolayers with HBSS buffer, and then measure TEER values at Rm temperature. • 5. Centrifuge the compound solution (from step 3) at 4000 rpm for 5 min before loading to donor chambers. • 6. Add solution based on the volumes listed in the following table (make sure to take extra 100 uL of donor sample for T0 as Backup).
• 7. To determine LY concentration in the apical chamber, take 100 μL sample from apical chambers into an opaque plate for LYT0. • 8. Prewarm apical and basolateral plates at 37° C. for about 5 min, then begin transport by placing the apical plate onto basolateral plate. • 9. Keep the plates in incubator at 37° C. for 90 min • 10. Prepare 20× solution
• 11. Separate the apical plate from the basolateral plate after 90-min incubation. • 12. Take 100 μL samples from basolateral plate to an opaque plate as LYT90. • 13. Measure LY concentrations for LYT0 and LYT90 by Fluorometer (at excitation of 485 nm/emission of 535 nm). • 14. Sample preparation for LC-MS/MS: Donor or receiver samples are diluted by 0.4% DMSO HBSS, then mix with ACN with IS (Osalmid or Imipramine)

[3] = Metabolic stability test, HLM; format: in vitro ADME; details: human, liver microsomes; for CLint scaled at 1 μM: pH 7.4, read-out: Cl (mL/min/kg) HLM; for half-life at 1 μM: pH 7.4, read-out: T1/2 (min) HLM
Procedure: (§1) • 1. Buffers: • Buffer A: 1.0 L of 0.1 M monobasic Potassium Phosphate buffer containing 1.0 mM EDTA • Buffer B: 1.0 L of 0.1 M Dibasic Potassium Phosphate buffer containing 1.0 mM EDTA • Buffer C: 0.1 M Potassium Phosphate buffer, 1.0 mM EDTA, pH 7.4 by titrating 700 mL of buffer B with buffer A while monitoring with the pH meter. • 2. Reference compounds (Ketanserin) and test compounds spiking solution: • 500 μM spiking solution: add 10 μL of 10 mM DMSO stock solution into 190 μL ACN. • 1.5 μM spiking solution in microsomes (0.75 mg/mL): add 1.5 μL of 500 μM spiking solution and 18.75 μL of 20 mg/mL liver microsomes into 479.75 μL of Buffer C on ice. • 3. Prepare NADPH stock solution (6 mM) by dissolving NADPH into buffer C. • 4. Dispense 30 μL of 1.5 μM spiking solution containing 0.75 mg/mL microsomes solution to the assay plates designated for different time points (0-, 5-, 15-, 30-, 45-min) on ice. • 5. For 0-min time point, add 135 μL of ACN containing IS to the wells of 0-min plate and then add 15 μL of NADPH stock solution (6 mM). • 6. Pre-incubate all other plates at 37° C. for 5 minutes. • 7. Add 15 μL of NADPH stock solution (6 mM) to the plates to start the reaction and timing. • 8. At 5-min, 15-min, 30-min, and 45-min, add 135 μL of ACN containing IS to the wells of corresponding plates, respectively, to stop the reaction. • 9. After quenching, shake the plates at the vibrator (IKA, MTS 2/4) for 10 min (600 rpm/min) and then centrifuge at 5594 g for 15 min (ThermoMultifuge×3R). • 10. Transfer 50 μL of the supernatant from each well into a 96-well sample plate containing 50 μL of ultra pure water (Millipore, ZMQS50F01) for LC/MS analysis.

[4] = Metabolic stability test, DLM; format: in vitro ADME; details: dog, liver microsomes; for CLint scaled at 1 μM: pH 7.4, read-out: Cl (mL/min/kg) DLM; for half-life at 1 μM: pH 7.4, read-out: T1/2 (min) DLM
Procedure: as §1

RIP2 kinase, sequence (O43353 whole entry): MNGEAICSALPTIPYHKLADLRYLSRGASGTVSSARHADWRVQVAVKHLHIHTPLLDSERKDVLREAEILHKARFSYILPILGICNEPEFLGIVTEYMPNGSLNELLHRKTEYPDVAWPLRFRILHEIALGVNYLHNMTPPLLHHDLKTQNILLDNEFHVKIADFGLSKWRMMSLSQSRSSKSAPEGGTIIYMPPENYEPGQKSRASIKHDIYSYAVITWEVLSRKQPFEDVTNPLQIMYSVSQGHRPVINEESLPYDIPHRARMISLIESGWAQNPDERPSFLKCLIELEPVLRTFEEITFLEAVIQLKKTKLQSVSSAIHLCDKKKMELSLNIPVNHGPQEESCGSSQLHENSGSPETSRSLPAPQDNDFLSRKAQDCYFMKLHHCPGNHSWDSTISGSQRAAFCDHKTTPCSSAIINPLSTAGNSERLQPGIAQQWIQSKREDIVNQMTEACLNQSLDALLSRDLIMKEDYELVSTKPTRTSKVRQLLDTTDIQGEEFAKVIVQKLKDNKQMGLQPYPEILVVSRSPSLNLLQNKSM

| Structure (SMILES) | Kd [1] [nM] | efflux (in words) [2] | permeability (in words) [2] | CLint scaled at 1 μM [3] [mL/min/kg] | half-life at 1 μM [3] [min] | CLint scaled at 1 μM [4] [mL/min/kg] | half-life at 1 μM [4] [min] |
| --- | --- | --- | --- | --- | --- | --- | --- |
| CP(C)(=O)c1cc2c(Nc3ccc4scnc4c3)ccnc2cc1O[C@H]1CCOC1 [A14] | 3 |  | moderate | 22.9 | 75.8 | 5.58 | 619 |
| CP(C)(=O)c1cc2c(Nc3ccc4scnc4c3)ccnc2cc1OCCO [A7, (4-(benzo[d]thiazol-5-ylamino)-7-(2-hydroxyethoxy)quinolin-6-yl)dimethylphosphine oxide] | 5.8 |  | low | 4.13 | 421 | 2.58 | 1340 |
| CC1(COc2cc3nccc(Nc4ccc5scnc5c4)c3cc2P(C)(C)=O)COC1 [A9] | 2.1 |  | moderate | 33.5 | 52 | 30.1 | 115 |
| CP(C)(=O)c1cc2c(Nc3ccc4scnc4c3)ccnc2cc1OC(F)(F)F [A24] | 5.2 | no obvious efflux | high permeability |  |  |  |  |

Further compounds by falling Kd [1], results first:

| Kd [1] [nM] | efflux (in words) [2] | permeability (in words) [2] | CLint scaled at 1 μM [3] [mL/min/kg] | half-life at 1 μM [3] [min] | CLint scaled at 1 μM [4] [mL/min/kg] | half-life at 1 μM [4] [min] | Structure (SMILES) |
| --- | --- | --- | --- | --- | --- | --- | --- |
| 3.8 |  | low | 9.98 | 174 |  |  | CP(C)(=O)c1cc2c(Nc3ccc4scnc4c3)ccnc2cc1OC1COC1 [A16] |
| 3.1 | no obvious efflux | high permeability | 2.97 | 586 | 5.21 | 664 | COc1cc2nccc(Nc3ccc4scnc4c3)c2cc1P(C)(C)=O [A6] |
| 3 |  | moderate | 19.6 | 88.6 | 4.16 | 831 | CP(C)(=O)c1cc2c(Nc3ccc4scnc4c3)ccnc2cc1O[C@@H]1CCOC1 [A15] |
| 2 | efflux substrate | favorable permeability | 15.9 | 109 | 13.7 | 253 | COCCOc1cc2nccc(Nc3ccc4scnc4c3)c2cc1P(C)(C)=O [A8] |
